Test results: ChEMBL document CHEMBL2203066 (J Med Chem, 2012)
Activity calls are given as the source filed them. The rule behind the calls is not given here.

Legend:
Influenza A virus [1] = experiment: Antiviral activity against Influenza A virus A/WSN/1933(H1N1) infected in BALB/c mouse assessed as protection against virus-induced body weight loss at 10 mg/kg/day, po bid for 5 days followed by viral infection at 4 hrs post first dose measured 8 days post infection; format: functional, organism-based
[2] = Drug excretion in Sprague-Dawley rat urine at 5 mg/kg, po; format: ADME, organism-based; design: dose 5 mg/kg, route oral; conditions: read-out: Drug excretion
Influenza A virus [3] = experiment: Antiviral activity against Influenza A virus A/CA/07/2009(H1N1) infected in BALB/c mouse assessed as protection against virus-induced body weight loss at 10 mg/kg/day, po bid for 5 days followed by viral infection at 4 hrs post first dose measured 2 to 14 days post infection; format: functional, organism-based; conditions: A/California/07/2009(H1N1)
[4] = Metabolic stability in dog whole blood at 5 uM; format: ADME, tissue-based, Canis lupus familiaris
Influenza A virus [5] = experiment: Antiviral activity against Influenza A virus A/CA/07/2009(H1N1) infected in BALB/c mouse assessed as protection against virus-induced mortality at 0.1 mg/kg/day, po bid for 5 days followed by viral infection at 4 hrs post first dose measured after 2 to 14 days; format: functional, organism-based; conditions: A/California/07/2009(H1N1)
Liver microsomes [6] = experiment: Metabolic stability in human liver microsomes at 3 uM; format: ADME, Microsome
Influenza A virus [7] = experiment: Antiviral activity against Influenza A virus A/Brisbane/10/2007(H3N2) infected in MDCK cells assessed as protection against virus-induced cytopathic effect after 48 to 72 hrs by CellTiter 96 aqueous assay; format: functional, organism-based
Influenza A virus [8] = experiment: Antiviral activity against Influenza A virus A/WSN/1933(H1N1) infected in BALB/c mouse assessed as protection against virus-induced mortality at 1 mg/kg/day, po bid for 5 days followed by viral infection at 4 hrs post first dose measured after 2 to 14 days; format: functional, organism-based
Influenza A virus [9] = experiment: Antiviral activity against Influenza A virus A/CA/07/2009(H1N1) infected in BALB/c mouse assessed as protection against virus-induced body weight loss at 1 mg/kg/day, po bid for 5 days followed by viral infection at 4 hrs post first dose measured 20 days post infection; format: functional, organism-based; conditions: A/California/07/2009(H1N1)
Influenza B virus [10] = experiment: Antiviral activity against Influenza B virus B/Sichuan/379/99 infected in MDCK cells assessed as protection against virus-induced cytopathic effect after 48 to 72 hrs by CellTiter 96 aqueous assay; format: functional, organism-based; conditions: B/Sichuan/379/99, MDCK
MDCK = experiment: Cytotoxicity against MDCK cells at 100 uM; format: cell-based, Canis lupus familiaris; conditions: dog
Liver microsomes [11] = experiment: Metabolic stability in rat liver microsomes at 3 uM; format: ADME, Microsome
Neuraminidase = Neuraminidase (Influenza A virus, UniProt B4URF0)
Liver = experiment: Metabolic stability in dog liver microsomes at 3 uM; format: ADME, Canis lupus familiaris, Microsome
Influenza A virus [12] = experiment: Antiviral activity against Influenza A virus A/CA/07/2009(H1N1) infected in BALB/c mouse assessed as protection against virus-induced mortality at 1 mg/kg/day, po bid for 5 days followed by viral infection at 4 hrs post first dose measured on day 20 to day 21; format: functional, organism-based; conditions: A/California/07/2009(H1N1)
Influenza A virus [13] = experiment: Antiviral activity against Influenza A virus A/WSN/1933(H1N1) infected in BALB/c mouse assessed as protection against virus-induced mortality at 10 mg/kg/day, po bid for 5 days followed by viral infection at 4 hrs post first dose measured 8 days post infection; format: functional, organism-based
[14] = Drug excretion in Sprague-Dawley rat feces at 5 mg/kg, po; format: ADME, organism-based; design: dose 5 mg/kg, route oral; conditions: faeces, read-out: Drug excretion
Blood [15] = experiment: Metabolic stability in human whole blood at 5 uM; format: ADME, tissue-based
Blood [16] = experiment: Metabolic stability in rat whole blood at 5 uM; format: ADME, tissue-based
Influenza B virus [17] = experiment: Antiviral activity against Influenza B virus B/Florida/4/2006 infected in MDCK cells assessed as protection against virus-induced cytopathic effect after 48 to 72 hrs by CellTiter 96 aqueous assay; format: functional, cell-based; conditions: B/Florida/4/2006, MDCK
Influenza A virus [18] = experiment: Antiviral activity against Influenza A virus A/CA/07/2009(H1N1) infected in BALB/c mouse assessed as protection against virus-induced body weight loss at 0.1 mg/kg/day, po bid for 5 days followed by viral infection at 4 hrs post first dose measured after 2 to 14 days; format: functional, organism-based; conditions: A/California/07/2009(H1N1)
[19] = Drug metabolism in rat liver microsomes at 3 uM after 1 hr; format: ADME, Microsome; conditions: read-out: Drug metabolism
[20] = Drug metabolism in human liver microsomes at 3 uM after 1 hr; format: ADME, Microsome; conditions: read-out: Drug metabolism
[21] = Drug metabolism in dog liver microsomes at 3 uM after 1 hr; format: ADME, Canis lupus familiaris, Microsome; conditions: read-out: Drug metabolism
Mus musculus [22] = experiment: Acute toxicity in CD1 mouse assessed as mortality at 2000 mg/kg, ip; format: organism-based; design: dose 2000 mg/kg, route intraperitoneal; conditions: in vivo
Plasma = experiment: Plasma concentration in Sprague-Dawley rat at 1 mg/kg, po; format: ADME, organism-based; design: dose 1 mg/kg, route oral; conditions: in vivo, BLD = below limit of detection
Mus musculus [23] = experiment: Acute toxicity in CD1 mouse assessed as hypoactivity at 300 to 2000 mg/kg, ip measured within 2 days; format: organism-based; design: dose 300-2000 mg/kg, route intraperitoneal; conditions: in vivo, 48 h
Mus musculus [24] = experiment: Acute toxicity in CD1 mouse assessed as piloerection at 300 to 2000 mg/kg, ip measured within 2 days; format: organism-based; design: dose 300-2000 mg/kg, route intraperitoneal; conditions: in vivo, 48 h
Influenza A virus [25] = experiment: Antiviral activity against Influenza A virus A/WSN/1933(H1N1) infected in BALB/c mouse assessed as partial protection against virus-induced body weight loss at 0.1 mg/kg/day, po bid for 5 days followed by viral infection at 4 hrs post first dose measured 2 to 14 days post infection; format: functional, organism-based
Mus musculus [26] = experiment: Acute toxicity in CD1 mouse assessed as hunched posture at 300 to 2000 mg/kg, ip measured within 2 days; format: organism-based; design: dose 300-2000 mg/kg, route intraperitoneal; conditions: in vivo, 48 h
Mus musculus [27] = experiment: Acute toxicity in CD1 mouse assessed as convulsion at 300 to 2000 mg/kg, ip measured within 2 days; format: organism-based; design: dose 300-2000 mg/kg, route intraperitoneal; conditions: in vivo, 48 h
Mus musculus [28] = experiment: Acute toxicity in CD1 mouse assessed as lesions at 300 to 2000 mg/kg, ip after 15 days by necropsy analysis; format: organism-based; design: dose 300-2000 mg/kg, route intraperitoneal; conditions: in vivo, 360 h
Influenza A virus [29] = experiment: Antiviral activity against Influenza A virus A/WSN/1933(H1N1) infected in BALB/c mouse assessed as partial protection against virus-induced mortality at 0.1 mg/kg/day, po bid for 5 days followed by viral infection at 4 hrs post first dose measured 2 to 14 days post infection; format: functional, organism-based
Mus musculus [30] = experiment: Acute toxicity in CD1 mouse assessed as body jerks at 300 to 2000 mg/kg, ip measured within 2 days; format: organism-based; design: dose 300-2000 mg/kg, route intraperitoneal; conditions: in vivo, 48 h
Mus musculus [31] = experiment: Acute toxicity in CD1 mouse assessed as tremor at 300 to 2000 mg/kg, ip measured within 2 days; format: organism-based; design: dose 300-2000 mg/kg, route intraperitoneal; conditions: in vivo, 48 h
Mus musculus [32] = experiment: Acute toxicity in CD1 mouse assessed as mortality at 750 mg/kg, iv; format: organism-based; design: dose 750 mg/kg, route intravenous; conditions: in vivo
Mus musculus [33] = experiment: Acute toxicity in CD1 mouse assessed as lesions at 300 to 1000 mg/kg, iv after 15 days by necropsy analysis; format: organism-based; design: dose 300-1000 mg/kg, route intravenous; conditions: in vivo, 360 h
Mus musculus [34] = experiment: Acute toxicity in CD1 mouse assessed as hypoactivity at 300 to 1000 mg/kg, iv measured within 2 days; format: organism-based; design: dose 300-1000 mg/kg, route intravenous; conditions: in vivo, 48 h
Mus musculus [35] = experiment: Acute toxicity in CD1 mouse assessed as body jerks at 300 to 1000 mg/kg, iv measured within 2 days; format: organism-based; design: dose 300-1000 mg/kg, route intravenous; conditions: in vivo, 48 h
Mus musculus [36] = experiment: Acute toxicity in CD1 mouse assessed as piloerection at 300 to 1000 mg/kg, iv measured within 2 days; format: organism-based; design: dose 300-1000 mg/kg, route intravenous; conditions: in vivo, 48 h
Mus musculus [37] = experiment: Acute toxicity in CD1 mouse assessed as convulsion at 300 to 1000 mg/kg, iv measured within 2 days; format: organism-based; design: dose 300-1000 mg/kg, route intravenous; conditions: in vivo, 48 h
Mus musculus [38] = experiment: Acute toxicity in CD1 mouse assessed as tremor at 300 to 1000 mg/kg, iv measured within 2 days; format: organism-based; design: dose 300-1000 mg/kg, route intravenous; conditions: in vivo, 48 h
Mus musculus [39] = experiment: Acute toxicity in CD1 mouse assessed as hunched posture at 300 to 1000 mg/kg, iv measured within 2 days; format: organism-based; design: dose 300-1000 mg/kg, route intravenous; conditions: in vivo, 48 h
in vivo = conditions: Sprague-Dawley, rat, po, 10 mg/kg

Sequence of Neuraminidase (B4URF0 whole entry): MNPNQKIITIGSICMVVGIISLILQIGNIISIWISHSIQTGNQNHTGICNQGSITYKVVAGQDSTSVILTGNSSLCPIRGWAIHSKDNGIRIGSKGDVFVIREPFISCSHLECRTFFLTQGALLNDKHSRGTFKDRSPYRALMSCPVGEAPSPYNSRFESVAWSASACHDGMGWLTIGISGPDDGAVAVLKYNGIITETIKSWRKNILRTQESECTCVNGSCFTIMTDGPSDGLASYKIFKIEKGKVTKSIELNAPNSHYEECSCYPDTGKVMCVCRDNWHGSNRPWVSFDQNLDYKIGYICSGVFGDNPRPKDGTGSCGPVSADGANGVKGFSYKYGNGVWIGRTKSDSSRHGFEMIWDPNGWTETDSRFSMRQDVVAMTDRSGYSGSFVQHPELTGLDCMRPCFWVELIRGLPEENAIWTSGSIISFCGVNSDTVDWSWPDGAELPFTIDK

SMILES: CCC(CC)O[C@@H]1C=C(P(=O)(O)O)C[C@H](NC(=N)N)[C@H]1NC(C)=O
- Activity (Influenza A virus [1]): Active
- dose excreted [2]: 1.5%
- Activity (Influenza A virus [3]): Active
- Stability [4]: Unstable
- Activity (Influenza A virus [5]): inactive
- Stability (Liver microsomes [6]): Unstable
- EC50 (Influenza A virus [7]): > 10 µM
- Activity (Influenza A virus [8]): Active
- Activity (Influenza A virus [9]): inactive
- EC50 (Influenza B virus [10]): > 10 µM
- Activity (MDCK): Non-toxic
- Stability (Liver microsomes [11]): Unstable
- IC50 (Neuraminidase): 0.0003 µM
- Stability (Liver): Unstable
- Activity (Influenza A virus [12]): inactive
- Activity (Influenza A virus [13]): Active
- dose excreted [14]: 43.2%
- Stability (Blood [15]): Unstable
- Stability (Blood [16]): Unstable
- EC50 (Influenza B virus [17]): > 10 µM
- Activity (Influenza A virus [18]): inactive

SMILES: CCOP(=O)(OCC)C1=C[C@@H](OC(CC)CC)[C@H](NC(C)=O)[C@@H](N)C1
- Activity (Influenza A virus [1]): inactive
- Activity (Influenza A virus [8]): Active
- Activity (Influenza A virus [13]): inactive

SMILES: Cc1ncc2n1-c1ccc(Cl)cc1C(c1ccccc1F)=NC2 [MIDAZOLAM]
- metabolised at 1 h, 3 µM [19]: 65%
- metabolised at 1 h, 3 µM [20]: 65%
- metabolised at 1 h, 3 µM [21]: 65%

SMILES: CCOP(=O)(O)C1=C[C@@H](OC(CC)CC)[C@H](NC(C)=O)[C@@H](N)C1 [TAMIPHOSPHOR MONOETHYL ESTER]
- Activity (Influenza A virus [1]): Active
- Activity (Mus musculus [22]): Toxic
- Cp (Plasma): BLD
- Activity (Mus musculus [23]): Non-toxic
- Activity (Mus musculus [24]): Non-toxic
- EC50 (Influenza A virus [7]): > 10 µM
- Activity (Influenza A virus [8]): Active
- Activity (Influenza A virus [25]): Active
- Activity (Mus musculus [26]): Non-toxic
- Activity (Mus musculus [27]): Non-toxic
- Activity (MDCK): Non-toxic
- Activity (Mus musculus [28]): Non-toxic
- Activity (Influenza A virus [29]): Active
- Activity (Influenza A virus [13]): Active
- Activity (Mus musculus [30]): Non-toxic
- Activity (Mus musculus [31]): Non-toxic

SMILES: CCOP(=O)(O)C1=C[C@@H](OC(CC)CC)[C@H](NC(C)=O)[C@@H](NC(=N)N)C1 [TAMIPHOSPHOR MONOETHYL ESTER]
- Activity (Influenza A virus [1]): Active
- Activity (Influenza A virus [3]): Active
- Activity (Influenza A virus [5]): inactive
- Activity (Influenza A virus [8]): Active
- Activity (Influenza A virus [25]): Active
- Activity (Influenza A virus [9]): inactive
- Activity (Influenza A virus [29]): Active
- Activity (Influenza A virus [12]): inactive
- Activity (Influenza A virus [13]): Active
- Activity (Influenza A virus [18]): inactive

SMILES: CCC(CC)O[C@@H]1C=C(P(=O)(O)O)C[C@H](N)[C@H]1NC(C)=O [TAMIPHOSPHOR]
- Activity (Influenza A virus [1]): Active
- Activity (Mus musculus [32]): Toxic
- Activity (Mus musculus [33]): Non-toxic
- Activity (Mus musculus [34]): Non-toxic
- Activity (Mus musculus [35]): Non-toxic
- EC50 (Influenza A virus [7]): > 10 µM
- Activity (Influenza A virus [8]): Active
- Activity (Mus musculus [36]): Non-toxic
- Activity (Mus musculus [37]): Non-toxic
- Activity (MDCK): Non-toxic
- IC50 (Neuraminidase): 0.0018 µM
- Activity (Mus musculus [38]): Non-toxic
- Activity (Influenza A virus [13]): Active
- Activity (Mus musculus [39]): Non-toxic

SMILES: C[C@]12CC[C@H]3[C@@H](CCC4=CC(=O)CC[C@@]43C)[C@@H]1CC[C@@H]2O [TESTOSTERONE]
- metabolised at 1 h, 3 µM [19]: 65%
- metabolised at 1 h, 3 µM [20]: 65%
- metabolised at 1 h, 3 µM [21]: 65%

SMILES: CC(=O)N[C@H]1[C@H]([C@H](O)[C@H](O)CO)OC(C(=O)O)=C[C@@H]1N=C(N)N [ZANAMIVIR]
- bioavailability (in vivo): 3.7%
